Measurements as given in patent US12391686B2, “Compounds and uses thereof” (Foghorn Therapeutics Inc., priority 2019, dated 2025).

Experiments:
[1] = molecular target: T1, BRD9 bromodomain (Flag-BRD9 P133-K239; Swiss Prot Q9H8M2) (Homo sapiens, UniProt Q9H8M2); test: BRD9 Bromodomain TR-FRET Competition Binding Assay; conditions: competition with biotinylated BRD9 ligand; 90 minutes at room temperature
T1 construct: His-Flag-BRD9 (P133-K239); Swiss Prot Q9H8M2; His6 with TEV site (mgsshhhhhhenlyfq/) (N, cleaved yes); made in house
T1 sequence (Q9H8M2 133-239): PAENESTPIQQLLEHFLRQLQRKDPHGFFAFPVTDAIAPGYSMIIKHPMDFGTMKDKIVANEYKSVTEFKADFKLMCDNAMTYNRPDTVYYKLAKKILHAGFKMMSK
Procedure: Procedure: His-Flag-BRD9 (P133-K239; Swiss Prot Q9H8M2; SEQ ID NO:1 mgsshhhhhhenlyfq/gdykddddkgslevlfqg/[…] […]) was cloned, expressed, purified, and then treated with TEV protease. Cleaved His tag was removed by purification. The binding of a biotinylated small molecule ligand of BRD9 was assessed via the LANCE® TR-FRET platform (PerkinElmer), and the compounds were assayed for inhibitory activity against this interaction.
Results: A mixture of biotinylated-ligand and SureLight™ Allophycocyanin-Streptavidin (APC-SA, PerkinElmer AD0201) in 50 mM HEPES (pH 7.4), 50 mM NaCl, 1 mM TCEP (pH 7), 0.01% (v/v) Tween-20, 0.01% (w/v) bovine serum albumin was added to a white 384-well PerkinElmer Proxiplate Plus plate. DMSO or 3-fold serially diluted compounds were then added to the Proxiplate followed by addition of Flag-BRD9. After a 10-minute incubation at room temperature, Eu-W1024 anti-FLAG (PerkinElmer, AD0273) was added. The final reaction mixture that contained 3.75 nM biotinylated ligand, 3 nM Flag-BRD9, 7.5 nM SureLight™ Allophycocyanin-Streptavidin, and 0.2 nM Eu-W1024 anti-FLAG was incubated at room temperature for 90 minutes.
The plates were then read on a PerkinElmer Envision plate reader to determine the ratio of emission at 665 nm over 615 nm. […]

[2] = molecular target: T2, Nanoluciferase-BRD9 fusion protein (3×FLAG-NLuc-BRD9) in SYO-1 cells (Homo sapiens, UniProt Q9H8M2); test: SYO1 BRD9 NanoLuc Degradation Assay; type: cell-based; conditions: 6 hours; SYO-1 cells expressing 3×FLAG-NLuc-BRD9; top dose 1 μM; read-out: SYO1 BRD9-NanoLuc degradation IC50
T2 construct: expressed in transfected cells; host or cells: SYO-1
T2 sequence (Q9H8M2 1-597): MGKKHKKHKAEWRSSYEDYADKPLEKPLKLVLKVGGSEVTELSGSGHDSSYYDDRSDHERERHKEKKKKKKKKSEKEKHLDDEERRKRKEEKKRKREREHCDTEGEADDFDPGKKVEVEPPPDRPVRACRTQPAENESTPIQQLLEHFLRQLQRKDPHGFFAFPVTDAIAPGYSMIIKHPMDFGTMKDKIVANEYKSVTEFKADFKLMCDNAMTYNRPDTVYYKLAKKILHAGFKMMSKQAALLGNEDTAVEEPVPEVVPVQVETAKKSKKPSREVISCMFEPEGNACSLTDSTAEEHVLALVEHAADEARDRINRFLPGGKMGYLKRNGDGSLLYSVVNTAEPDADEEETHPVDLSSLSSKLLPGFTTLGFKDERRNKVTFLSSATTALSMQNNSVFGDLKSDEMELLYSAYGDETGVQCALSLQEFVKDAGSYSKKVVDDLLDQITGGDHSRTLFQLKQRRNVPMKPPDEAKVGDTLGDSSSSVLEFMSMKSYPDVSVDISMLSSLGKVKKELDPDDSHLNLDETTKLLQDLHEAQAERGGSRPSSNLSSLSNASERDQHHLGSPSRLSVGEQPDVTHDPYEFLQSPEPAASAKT
How it was run: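 Stable 3×FLAG-NLuc-BRD9 SYO-1 line, 8000 cells/well, dosed day 1 with 10-point 3-fold dilutions (1 μM final top, duplicates) for 6 h. NanoLuc bioluminescence read with Nano-Glo; % inhibition relative to DMSO (high) and 1 μM reference BRD9 degrader (low) controls.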

In the case of `COc1cc(-c2cn(C)c(=O)c3cnc(N(C)C)cc23)cc(OC)c1CN1CCC2(CC1)CN(C(=O)CCCCOc1ccc3c(c1)C(=O)N(C1CCC(=O)NC1=O)C3=O)CCO2` (stereo not shown) [Compound D19, 5-((5-(9-(4-(6-(dimethylamino)-2-methyl-1-oxo-1,2-dihydro-2,7-naphthyridin-4-yl)-2,6-dimethoxybenzyl)-1-oxa-4,9-diazaspiro[5.5]undecan-4-yl)-5-oxopentyl)oxy)-2-(2,6-dioxopiperidin-3-yl)isoindoline-1,3-dione formic acid], the IC50 [1] is reported as < 10 nM and the DC50 [2] is reported as < 10 nM.
For `COc1cc(-c2cn(C)c(=O)c3cnc(N(C)C)cc23)cc(OC)c1CN1CCC(CCN2CCN(c3ccc4c(c3)C(=O)N(C3CCC(=O)NC3=O)C4=O)CC2)CC1` (stereo not shown) [Compound D20, 5-(4-(2-(1-(4-(6-(dimethylamino)-2-methyl-1-oxo-1,2-dihydro-2,7-naphthyridin-4-yl)-2,6-dimethoxybenzyl)piperidin-4-yl)ethyl)piperazin-1-yl)-2-(2,6-dioxopiperidin-3-yl)isoindoline-1,3-dione formic acid], the IC50 [1] was < 10 nM and the DC50 [2] was < 10 nM.
For `COc1cc(-c2cn(C)c(=O)c3cnc(N(C)C)cc23)cc(OC)c1CN(C)CCOCCN1CCN(c2ccc3c(c2)C(=O)N(C2CCC(=O)NC2=O)C3=O)CC1` (stereo not shown) [Compound D21, 5-[4-(2-[2-[([4-[6-(dimethylamino)-2-methyl-1-oxo-2,7-naphthyridin-4-yl]-2,6-dimethoxyphenyl]methyl)(methyl)amino]ethoxy]ethyl)piperazin-1-yl]-2-(2,6-dioxopiperidin-3-yl)isoindole-1,3-dione], the IC50 [1] was < 10 nM and the DC50 [2] was < 10 nM.
`COc1cc(-c2cn(C)c(=O)c3cnc(N(C)CCOCCOCCNc4ccc5c(c4)C(=O)N(C4CCC(=O)NC4=O)C5=O)cc23)cc(OC)c1CN(C)C` (stereo not shown) [Compound D22, 5-[10-(5-[4-[(dimethylamino)methyl]-3,5-dimethoxyphenyl]-7-methyl-8-oxo-2,7-naphthyridin-3-yl)-4,7-dioxa-1,10-diazaundecan-1-yl]-2-(2,6-dioxopiperidin-3-yl)isoindole-1,3-dione formic acid] was tested, and the IC50 [1] was ≥ 10 nM and the DC50 [2] was ≥ 100 nM.
`COc1cc(-c2cn(C)c(=O)c3cc(NCCOCCOCCNc4cccc5c4C(=O)N(C4CCC(=O)NC4=O)C5=O)ncc23)cc(OC)c1CN(C)C` (stereo not shown) [Compound D24, 4-[[2-(2-[2-[(8-[4-[(dimethylamino)methyl]-3,5-dimethoxyphenyl]-6-methyl-5-oxo-2,6-naphthyridin-3-yl)amino]ethoxy]ethoxy)ethyl]amino]-2-(2,6-dioxopiperidin-3-yl)isoindole-1,3-dione] was tested, and the IC50 [1] was ≥ 10 nM and the DC50 [2] was ≥ 10 nM.
With `COc1cc(-c2cn(C)c(=O)c3cc(NCCCCCOc4cccc5c4C(=O)N(C4CCC(=O)NC4=O)C5=O)ncc23)c(OC)cc1CN(C)C` (stereo not shown) [Compound D25, 4-((5-((8-(4-((dimethylamino)methyl)-2,5-dimethoxyphenyl)-6-methyl-5-oxo-5,6-dihydro-2,6-naphthyridin-3-yl)amino)pentyl)oxy)-2-(2,6-dioxopiperidin-3-yl)isoindoline-1,3-dione] the IC50 [1] was ≥ 1000 nM and the DC50 [2] was ≥ 100 nM.
With `COc1cc(-c2cn(C)c(=O)c3cc(NCC(=O)NCCCCCOc4cccc5c4C(=O)N(C4CCC(=O)NC4=O)C5=O)ncc23)cc(OC)c1CN(C)C` (stereo not shown) [Compound D26, 2-[(8-[4-[(dimethylamino)methyl]-3,5-dimethoxyphenyl]-6-methyl-5-oxo-2,6-naphthyridin-3-yl)amino]-N-(5-[[2-(2,6-dioxopiperidin-3-yl)-1,3-dioxoisoindol-4-yl]oxy]pentyl) acetamide] the IC50 [1] was ≥ 10 nM and the DC50 [2] was ≥ 10 nM.
`COc1cc(-c2cn(C)c(=O)c3cnc(N(C)C)cc23)cc(OC)c1CN1CCC2(CC1)CN(C(=O)CCCCOc1cccc3c1C(=O)N(C1CCC(=O)NC1=O)C3=O)CCO2` (stereo not shown) [Compound D27, 4-((5-(9-(4-(6-(dimethylamino)-2-methyl-1-oxo-1,2-dihydro-2,7-naphthyridin-4-yl)-2,6-dimethoxybenzyl)-1-oxa-4,9-diazaspiro[5.5]undecan-4-yl)-5-oxopentyl)oxy)-2-(2,6-dioxopiperidin-3-yl)isoindoline-1,3-dione formic acid] was tested, and the IC50 [1] was < 10 nM and the DC50 [2] was < 10 nM.
